In publication PMC3275140 (Journal of Natural Products, 2011):

These molecules were tested on tubulin (assay: Inhibition of tubulin polymerization). Conditions: read-out: Inhibition of tubulin polymerization IC50; pure protein assay.
Type: biochemical
`COc1cc(/C=C\c2ccc(OC)c(OP(=O)(O)O)c2O)cc(OC)c1OC` [4a (Z), (Z)-1-[3′,4′,5′-Trimethoxyphenyl]-2-[2″-[hydroxy]-3″-[(disodium)phosphate]-4″-methoxyphenyl] ethene] gave an IC50 of over 40 µM. Work on `COc1ccc(/C=C\c2cc(OC)c(OC)c(OC)c2)c(OP(=O)(O)O)c1O` [8a (Z), (Z)-1-[3′,4′,5′-Trimethoxyphenyl]-2-[2″-[(disodium)phosphate]-3″-[hydroxy]-4″-methoxyphenyl] ethene] yielded an IC50 of over 40 µM. With `COc1cc(/C=C\c2ccc(OC)c(OP(=O)(O)O)c2OP(=O)(O)O)cc(OC)c1OC` [CA1P (Z), reference compound] the IC50 was over 40 µM.
